Experimental data from patent US20230263742A1, “A LIPID” (Stemirna Therapeutics Co., Ltd., priority 2021, published 2023).

How the values were obtained:
[1] = Particle size, PDI and zeta potential by dynamic light scattering; assay type: physicochemical; settings: for PDI / Zeta potential: Luc mRNA-LNP 50:10:38.5:1.5; for Size: Luc mRNA-LNP, lipid:phospholipid:cholesterol:PEG-DMG 50:10:38.5:1.5
Protocol: A Zetasizer Nano ZS (Malvern Instruments Ltd, Malvern, Worcestershire, UK) can be used to determine the particle size, the polydispersity index (PDI) and the zeta (ζ) potential of the nanoparticle compositions in 1×PBS in determining particle size and 15 mM PBS in determining zeta (ζ) potential.
The evaluation method of particle size and zeta potential: 50 μL LNP sample was diluted with 950 μL purified water to obtain the diluted LNP sample. The sample was placed in a dynamic light scattering laser particle size analyzer (Malvern, ZS-90) for testing.

C2C12 cells = test: In vitro cell Luc expression, C2C12; assay type: cell-based; settings: 100 ng Luc mRNA-LNP, 24 h
Protocol: In vitro cell expression evaluation method: C2C12 cells, HepG2 cells, A20 cells were cultured, and 100,000 cells per well were plated on a 96-well plate. 100 ng of LNP samples were mixed with the cells and incubated for 24 hours (n=3), and then the expression was detected using luciferase quantitative kit 24 h after administration.

Row | SMILES | PDI ([1]; phospholipid DAPC) | Zeta potential ([1]; phospholipid DAPC) [mV] | Size ([1]; phospholipid DAPC) [nm] | PDI ([1]; phospholipid DMPE) | Zeta potential ([1]; phospholipid DMPE) [mV] | Size ([1]; phospholipid DMPE) [nm] | PDI ([1]; phospholipid DOPE) | Zeta potential ([1]; phospholipid DOPE) [mV] | Size ([1]; phospholipid DOPE) [nm] | PDI ([1]; phospholipid DPPC) | Zeta potential ([1]; phospholipid DPPC) [mV] | Size ([1]; phospholipid DPPC) [nm] | PDI ([1]; phospholipid DPPE) | Zeta potential ([1]; phospholipid DPPE) [mV] | Size ([1]; phospholipid DPPE) [nm] | PDI ([1]; phospholipid DSPC) | Zeta potential ([1]; phospholipid DSPC) [mV] | Size ([1]; phospholipid DSPC) [nm] | PDI ([1]; phospholipid DSPE) | Zeta potential ([1]; phospholipid DSPE) [mV] | further results
1 | CCCCCCCCC(CCCCCCCC)OC(=O)CCCCCCCN(CCO)CCCCCCCC(=O)OCCc1ccc(CCCCCCC)cc1 [SW-II-121] | 0.27 ± 0.01 | −2.21 ± 0.53 | 96.3 ± 2.2 | 0.20 ± 0.03 | 0.01 ± 0.35 | 139.8 ± 1.1 | 0.17 ± 0.03 | 5.06 ± 0.15 | 159.87 ± 3.7 | 0.22 ± 0.02 | −1.23 ± 1.43 | 98.7 ± 1.7 | 0.17 ± 0.03 | −0.29 ± 0.31 | 98.4 ± 2.7 | 0.22 ± 0.03 | −1.18 ± 1.18 | 98.5 ± 1.5 | 0.17 ± 0.03 | −9.60 ± 2.10 | Size ([1]; phospholipid DSPE): 116.3 ± 0.2 nm; C2C12 cell, in vitro expression (C2C12 cells; phospholipid DAPC): 24183; C2C12 cell, in vitro expression (C2C12 cells; phospholipid DMPE): 219379.5; C2C12 cell, in vitro expression (C2C12 cells; phospholipid DOPE): 1003834.5; C2C12 cell, in vitro expression (C2C12 cells; phospholipid DPPC): 93988; C2C12 cell, in vitro expression (C2C12 cells; phospholipid DPPE): 246921; C2C12 cell, in vitro expression (C2C12 cells; phospholipid DSPC): 93333; C2C12 cell, in vitro expression (C2C12 cells; phospholipid DSPE): 41556.5
2 | CCCCCCCCC(CCCCCCCC)OC(=O)CCCCCCCN(CCO)CCCCCCCC(=O)OCCc1ccc(CCCCCC)cc1 [SW-II-120] | 0.28 ± 0.02 | −4.82 ± 0.28 | 97.1 ± 1.6 | 0.20 ± 0.02 | −6.08 ± 0.43 | 92.7 ± 1.1 | 0.13 ± 0.02 | 2.09 ± 0.28 | 142.9 ± 1.9 | 0.22 ± 0.01 | −3.23 ± 2.95 | 92.97 ± 0.7 | 0.15 ± 0.04 | −5.04 ± 1.16 | 115.3 ± 3.7 | 0.20 ± 0.01 | 0.61 ± 0.55 | 88.7 ± 1.1 | 0.22 ± 0.02 | −5.15 ± 2.37 | Size ([1]; phospholipid DSPE): 106.5 ± 5.5 nm; C2C12 cell, in vitro expression (C2C12 cells; phospholipid DAPC): 17847.5; C2C12 cell, in vitro expression (C2C12 cells; phospholipid DMPE): 228078.5; C2C12 cell, in vitro expression (C2C12 cells; phospholipid DOPE): 815187.5; C2C12 cell, in vitro expression (C2C12 cells; phospholipid DPPC): 147377.5; C2C12 cell, in vitro expression (C2C12 cells; phospholipid DPPE): 471290.5; C2C12 cell, in vitro expression (C2C12 cells; phospholipid DSPC): 44819; C2C12 cell, in vitro expression (C2C12 cells; phospholipid DSPE): 51132.5
3 | CCCCCCCCC(CCCCCCCC)OC(=O)CCCCCCCN(CCO)CCCCCCCC(=O)OCCc1ccc(CCCC)cc1 [SW-II-118] | 0.28 ± 0.03 | −7.18 ± 0.42 | 93.8 ± 1.6 | 0.29 ± 0.01 | −1.59 ± 0.19 | 102.8 ± 2.3 | 0.10 ± 0.04 | −4.31 ± 1.36 | 111.3 ± 2.0 | 0.26 ± 0.06 | −2.32 ± 0.32 | 97.3 ± 2.6 | 0.54 ± 0.41 | −0.80 ± 0.58 | 265.7 ± 306.1 | 0.37 ± 0.02 | −1.65 ± 0.58 | 108.7 ± 2.5 | 0.21 ± 0.01 | −11.97 ± 1.19 | Size ([1]; phospholipid DSPE): 103.4 ± 2.0 nm; C2C12 cell, in vitro expression (C2C12 cells; phospholipid DAPC): 32703.5; C2C12 cell, in vitro expression (C2C12 cells; phospholipid DMPE): 218015.5; C2C12 cell, in vitro expression (C2C12 cells; phospholipid DOPE): 300431.5; C2C12 cell, in vitro expression (C2C12 cells; phospholipid DPPC): 260091; C2C12 cell, in vitro expression (C2C12 cells; phospholipid DPPE): 1254.5; C2C12 cell, in vitro expression (C2C12 cells; phospholipid DSPC): 80658; C2C12 cell, in vitro expression (C2C12 cells; phospholipid DSPE): 46290.5
